The values that follow come from ChEMBL document CHEMBL1681747, “Novel second generation analogs of eribulin. Part II: Orally available and active against resistant tumors in vivo” (Bioorg Med Chem Lett, 2011).

Active and inactive are the calls of the source. No cut-off for these calls is given here.

What is called IC50 is the concentration that gives 50% inhibition. A high value points to lower potency. A word on the AUC(0-inf): it is the area under the concentration-time curve extrapolated to infinity. Lower therefore signals less exposure. Usually half-life stands for how long it takes for the measured level to halve. In general, clearance refers to the volume of plasma or blood freed of the substance per unit of time. A high value points to efficient removal. As a reminder, the bioavailability is the share of a dose that reaches the circulation, judged against a reference dose that is usually intravenous. The term Tmax denotes the time at which the peak concentration occurs.

Series [1] deals with DLD-1. Kind of series: Cytotoxicity against human DLD1 cells. The class given is functional, cell-based.
Another series relates to HCT-15. Nature of the series: Cytotoxicity against human HCT15 cells. The format is functional, cell-based.
Series [2] in a line: AUC (0 to infinity) in BALB/c mouse at 5 mg/kg. The format is ADME, organism-based. Further details: time infinity, dose 5 mg/kg. The settings on record: plasma.
Series [3] is described as follows: Half life in BALB/c mouse at 5 mg/kg. The class given is ADME, organism-based. The arrangement: dose 5 mg/kg. Conditions: in vivo.
A short description of series [4]: Volume of distribution at steady state in BALB/c mouse at 5 mg/kg, iv. The class given is ADME, organism-based. The arrangement: dose 5 mg/kg, route intravenous. The settings on record: in vivo, read-out: Vdss.
Series [5] is described as follows: Clearance in BALB/c mouse at 5 mg/kg, iv. The class given is ADME, organism-based. The arrangement: dose 5 mg/kg, route intravenous. The settings on record: in vivo.
Series [6] in a line: Oral bioavailability in BALB/c mouse at 5 mg/kg. The class given is ADME, organism-based. Conditions: in vivo.
Series [7] in a line: Tmax in BALB/c mouse at 5 mg/kg. Conditions: in vivo. Further details: dose 5 mg/kg. The format is ADME, organism-based.
Series [8] is described as follows: Cytotoxicity against human MES-SA cells. The format is functional, cell-based.
Series [9] is described as follows: Cytotoxicity against human MES-SA/Dx5-Rx1 cells. The format is functional, cell-based.
The subject of the next series is MES-SA. Nature of the series: Fold resistant ratio of IC50 for MES-SA/Dx5-Rx1 cells to IC50 for human MES-SA cells.
The subject of series [10] is DLD-1. Nature of the series: Antitumor activity against human DLD1 cells xenografted in athymic mouse assessed as tumor stasis at 1.3 to 3 mg/kg, iv administered 2 weeks after tumor implantation qd for weekly 3 days. The class given is functional, organism-based. For orientation: Xenograft models place foreign cells or tissue in a host animal.
Series [11] has as its system DLD-1. Nature of the series: Antitumor activity against human DLD1 cells xenografted in iv dosed athymic mouse assessed as tumor growth inhibition administered qd for weekly 3 days. The class given is functional, organism-based.
For the next series, the system named is LOX. Nature of the series: Antitumor activity against human LOX cells xenografted in athymic mouse assessed as long term tumor regression at 0.95 to 3 mg/kg, po administered 6 days after tumor implantation qd for 2 weeks. The class given is functional, organism-based.

`C=C1C[C@@H]2CC[C@@]34C[C@H]5O[C@H]6[C@@H](O3)[C@H]3O[C@H](CC[C@@H]3O[C@H]6[C@H]5O4)CC(=O)C[C@@H]3[C@@H](OC)[C@@H](CC(=O)CN4CCOCC4)O[C@H]3C[C@H]3O[C@@H](CC[C@@H]1O2)C[C@@H](C)C3=C`: the half-inhibitory concentration (IC50) in the series on DLD-1 [1] is 0.7 nM; in the series with HCT-15, 0.46 nM. Besides, the area under the curve AUC(0-inf) in [2] came to 236 ng·h/mL. In addition, the half-life in series [3] is 102 min. Besides, the Vd in series [4] is 3.64 L/kg. In series [5], this compound showed a clearance of 47 mL/min/kg. Besides, in [6], the bioavailability amounted to 13.3%. In addition, the Tmax in series [7] was 5 min.
Regarding `C=C1C[C@@H]2CC[C@@]34C[C@H]5O[C@H]6[C@@H](O3)[C@H]3O[C@H](CC[C@@H]3O[C@H]6[C@H]5O4)CC(=O)C[C@@H]3[C@@H](OC)[C@@H](CCNCC(F)F)O[C@H]3C[C@H]3O[C@@H](CC[C@@H]1O2)C[C@@H](C)C3=C`, the figures for the IC50 in the series on DLD-1 [1] and with HCT-15 were 3.16 nM and 3.11 nM, respectively. For the same compound, the total exposure AUC(0-inf) in series [2] stood at 63 ng·h/mL. In addition, the half-life in [3] was 246 min. Besides, in series [4], the Vd was 4.78 L/kg. Moreover, the clearance in [5] is 48.5 mL/min/kg. In series [6], this compound gave a bioavailability of 11.3%. In addition, the Tmax in [7] is 5 min.
For `C=CCN(CC=C)CC[C@H]1O[C@H]2C[C@H]3O[C@@H](CC[C@@H]4O[C@@H](CC[C@@]56C[C@H]7O[C@H]8[C@@H](O5)[C@H]5O[C@H](CC[C@@H]5O[C@H]8[C@H]7O6)CC(=O)C[C@@H]2[C@H]1OC)CC4=C)C[C@@H](C)C3=C`, the half-inhibitory concentration (IC50) stood at 0.17 nM in series [8], 1.15 nM in series [9], 0.31 nM in the series with DLD-1 [1] and 0.21 nM with HCT-15. Also, the “Ratio IC50” value in the series with MES-SA turned out to be 6.57.
For `C=CCN(CC=C)C[C@H](C[C@H]1O[C@H]2C[C@H]3O[C@@H](CC[C@@H]4O[C@@H](CC[C@@]56C[C@H]7O[C@H]8[C@@H](O5)[C@H]5O[C@H](CC[C@@H]5O[C@H]8[C@H]7O6)CC(=O)C[C@@H]2[C@H]1OC)CC4=C)C[C@@H](C)C3=C)OC`, in that order: 0.17 nM, 1.01 nM, 0.44 nM, 0.27 nM and 6.26.
On to `C#CCN(CC#C)C[C@H](C[C@H]1O[C@H]2C[C@H]3O[C@@H](CC[C@@H]4O[C@@H](CC[C@@]56C[C@H]7O[C@H]8[C@@H](O5)[C@H]5O[C@H](CC[C@@H]5O[C@H]8[C@H]7O6)CC(=O)C[C@@H]2[C@H]1OC)CC4=C)C[C@@H](C)C3=C)OC`, for which the IC50 in series [8] came out at 0.13 nM; in series [9], 0.53 nM; with DLD-1 [1] it was 0.28 nM; in the series on HCT-15, 0.17 nM. Also, in the series with MES-SA, the “Ratio IC50” value is recorded as 3.99.
Turning to `C=C1C[C@@H]2CC[C@@]34C[C@H]5O[C@H]6[C@@H](O3)[C@H]3O[C@H](CC[C@@H]3O[C@H]6[C@H]5O4)CC(=O)C[C@@H]3[C@@H](OC)[C@@H](C[C@@H](CN4CC4C)OC)O[C@H]3C[C@H]3O[C@@H](CC[C@@H]1O2)C[C@@H](C)C3=C` (some centres not stated), the IC50 came out at 0.13 nM in series [8], 2.55 nM in [9], 0.29 nM in the series with DLD-1 [1] and 0.4 nM in the series with HCT-15. For the same compound, the “Ratio IC50” value with MES-SA is 19.91.
For `C#CCN(CC#C)CC[C@H]1O[C@H]2C[C@H]3O[C@@H](CC[C@@H]4O[C@@H](CC[C@@]56C[C@H]7O[C@H]8[C@@H](O5)[C@H]5O[C@H](CC[C@@H]5O[C@H]8[C@H]7O6)CC(=O)C[C@@H]2[C@H]1OC)CC4=C)C[C@@H](C)C3=C`, in that order: 0.69 nM, 3.99 nM, 1.42 nM, 0.89 nM and 5.65.
For `C=C1C[C@@H]2CC[C@@]34C[C@H]5O[C@H]6[C@@H](O3)[C@H]3O[C@H](CC[C@@H]3O[C@H]6[C@H]5O4)CC(=O)C[C@@H]3[C@@H](OC)[C@@H](C[C@@H](CNCC(=O)OCCCC)OC)O[C@H]3C[C@H]3O[C@@H](CC[C@@H]1O2)C[C@@H](C)C3=C`, the IC50 in series [8] is 0.28 nM; in [9] it was 1.6 nM; with DLD-1 [1], 0.58 nM; with HCT-15 it was 0.37 nM. Moreover, the “Ratio IC50” value with MES-SA was found to be 5.83.
As for `C=C1C[C@@H]2CC[C@@]34C[C@H]5O[C@H]6[C@@H](O3)[C@H]3O[C@H](CC[C@@H]3O[C@H]6[C@H]5O4)CC(=O)C[C@@H]3[C@@H](OC)[C@@H](C[C@@H](CN4CCN(S(=O)(=O)c5ccc(C)cc5)CC4)OC)O[C@H]3C[C@H]3O[C@@H](CC[C@@H]1O2)C[C@@H](C)C3=C`, the IC50 in [8] came out at 3.16 nM; in series [9] it was 39.1 nM; in the series with DLD-1 [1], 0.99 nM; with HCT-15, 0.62 nM. In addition, the “Ratio IC50” value in the series on MES-SA was determined as 12.35.
On to `C=C1C[C@@H]2CC[C@@]34C[C@H]5O[C@H]6[C@@H](O3)[C@H]3O[C@H](CC[C@@H]3O[C@H]6[C@H]5O4)CC(=O)C[C@@H]3[C@@H](OC)[C@@H](C[C@@H](CN4C[C@@H]4C)OC)O[C@H]3C[C@H]3O[C@@H](CC[C@@H]1O2)C[C@@H](C)C3=C` (some centres not stated), for which the IC50 was determined as 0.13 nM in series [8], 2.23 nM in series [9], 0.47 nM in the series on DLD-1 [1] and 0.67 nM in the series on HCT-15. In the series on MES-SA, the “Ratio IC50” value was found to be 18.26.
Consider `C=C1C[C@@H]2CC[C@@]34C[C@H]5O[C@H]6[C@@H](O3)[C@H]3O[C@H](CC[C@@H]3O[C@H]6[C@H]5O4)CC(=O)C[C@@H]3[C@@H](OC)[C@@H](C[C@@H](CN4C[C@H]4C)OC)O[C@H]3C[C@H]3O[C@@H](CC[C@@H]1O2)C[C@@H](C)C3=C` (some centres not stated), for which the 50% inhibitory concentration (IC50) was 0.16 nM in series [8], 2.79 nM in series [9], 0.53 nM with DLD-1 [1] and 0.78 nM with HCT-15. In addition, the “Ratio IC50” value in the series with MES-SA was 18.04.
On to `C=C1C[C@@H]2CC[C@@]34C[C@H]5O[C@H]6[C@@H](O3)[C@H]3O[C@H](CC[C@@H]3O[C@H]6[C@H]5O4)CC(=O)C[C@@H]3[C@@H](OC)[C@@H](C[C@@H](CN4CCN(C(F)(F)F)CC4)OC)O[C@H]3C[C@H]3O[C@@H](CC[C@@H]1O2)C[C@@H](C)C3=C`, for which the 50% inhibitory concentration (IC50) in [8] came out at 0.14 nM; in series [9], 0.83 nM; in the series with DLD-1 [1] it was 0.17 nM; in the series on HCT-15, 0.15 nM. In the series with MES-SA, the “Ratio IC50” value is recorded as 6.03.
`C=C1C[C@@H]2CC[C@@]34C[C@H]5O[C@H]6[C@@H](O3)[C@H]3O[C@H](CC[C@@H]3O[C@H]6[C@H]5O4)CC(=O)C[C@@H]3[C@@H](OC)[C@@H](C[C@H](O)CN4CCOCC4)O[C@H]3C[C@H]3O[C@@H](CC[C@@H]1O2)C[C@@H](C)C3=C`: the half-maximal inhibitory concentration (IC50) worked out at 0.15 nM in series [8], 7.26 nM in series [9], 0.31 nM in the series on DLD-1 [1] and 0.36 nM with HCT-15. Further, the “Ratio IC50” value with MES-SA is recorded as 49.82.
Regarding `C=CCN(C)C[C@H](C[C@H]1O[C@H]2C[C@H]3O[C@@H](CC[C@@H]4O[C@@H](CC[C@@]56C[C@H]7O[C@H]8[C@@H](O5)[C@H]5O[C@H](CC[C@@H]5O[C@H]8[C@H]7O6)CC(=O)C[C@@H]2[C@H]1OC)CC4=C)C[C@@H](C)C3=C)OC`, the IC50 in [8] turned out to be 0.07 nM; in series [9], 1.95 nM; in the series on DLD-1 [1], 0.23 nM; in the series on HCT-15 it was 0.22 nM. Further, the “Ratio IC50” value in the series with MES-SA is 29.4.
With `C=C1C[C@@H]2CC[C@@]34C[C@H]5O[C@H]6[C@@H](O3)[C@H]3O[C@H](CC[C@@H]3O[C@H]6[C@H]5O4)CC(=O)C[C@@H]3[C@@H](OC)[C@@H](C[C@@H](CN4CCOCC4)OC)O[C@H]3C[C@H]3O[C@@H](CC[C@@H]1O2)C[C@@H](C)C3=C`, the outcome in the series with DLD-1 [10] and with LOX was Active. For the same compound, the values for the IC50 with DLD-1 [1] and in the series on HCT-15 were 0.23 nM and 0.2 nM, respectively. For the same compound, in [2], the area under the curve AUC(0-inf) is 1090 ng·h/mL. The half-life in [3] was 54 min. In addition, in series [4], the Vd turned out to be 0.92 L/kg. Further, in series [5], the clearance was 11.3 mL/min/kg. For the same compound, the bioavailability in series [6] stood at 14.9%. For the same compound, the Tmax in [7] is 5 min. Besides, in the series on DLD-1 [11], the Activity result was “Dose-dependent effect”.
